Experiments:
Type in all cases: in vivo
Digitaria ciliaris [1] = test: Test Example 2: tests of treating shoots, herbicidal index; details: 63 g/ha, sprayed onto shoots, four weeks after the treatment
Procedure: (§1) An emulsifiable concentrate for test was prepared in the same manner as that described in Test Example 1.
(§2) Seeds of each of Lolium multiflorum, Digitaria ciliaris, and Zea mays for feed were placed in a surface layer of soil filled in a pot with a size of 150 cm^2 and then lightly covered with soil. Subsequently, the pots were kept in a greenhouse to allow the plants to grow. When each of Lolium multiflorum and Digitaria ciliaris grew to a shoot height ranging from 2 to 4 cm, and Zea mays for feed grew to a shoot height ranging from 20 to 30 cm, the emulsifiable concentrate mentioned above was diluted with water so as to have a specified amount of the active ingredient, and then sprayed onto the shoot parts by means of a small-sized sprayer at an application rate of 250 L of water per hectare.
(§3) Four weeks after the treatment, the weight of the shoot part of the alive plant in the untreated plot and the treated plot with respect to each of Lolium multiflorum, Digitaria ciliaris, and Zea mays for feed was measured. The herbicidal index was calculated according to the calculation expression described below.
(§4) (4) Calculation Expression for Herbicidal Index Herbicidal index (%)=[(Weight of the shoot part of the alive plant in the untreated plot−Weight of the shoot part of the alive plant in the treated plot)/(Weight of the shoot part of the alive plant in the untreated plot)]×100
(§5) A diluted emulsifiable concentrate of the compound of A-2 was sprayed at a dosage of 63 g of the compound per hectare.
(§6) In addition, with respect to the compound (A) described in Patent Document 1, the same application as described above was carried out.

Lolium multiflorum [2] = test: as above; details: 63 g/ha, sprayed onto shoots, four weeks after the treatment
Procedure: as §1, §2, §3, §4, §5, §6

Zea mays for feed [3] = test: Test Example 2: tests of treating shoots, herbicidal index (crop); details: 63 g/ha, sprayed onto shoots (crop, shoot height 20 to 30 cm), four weeks after the treatment
Procedure: as §1, §2, §3
(4) Calculation Expression for Herbicidal Index Herbicidal index (%)=[(Weight of the shoot part of the alive plant in the untreated plot−Weight of the shoot part of the alive plant in the treated plot)/(Weight of the shoot part of the alive plant in the untreated plot)]×100 […]

Abutilon theophrasti = test: Test Example 3: spraying onto shoots, herbicidal index; details: sprayed onto shoots, three weeks after the treatment
Procedure: as §1
(§7) Seeds of each of Zea mays for feed, Alopecurus myosuroides, Lolium multiflorum, Avena sativa, Digitaria ciliaris, Setaria faberi, Abutilon theophrasti, and Amaranthus retroflexus were placed in a surface layer of soil filled in a pot with a size of 150 cm^2 and then lightly covered with soil. Subsequently, the pots were kept in a greenhouse to allow the plants to grow. When each of Alopecurus myosuroides, Lolium multiflorum, Avena sativa, Digitaria ciliaris, Setaria faberi, Abutilon theophrasti, and Amaranthus retroflexus grew to a shoot height ranging from 2 to 4 cm, and Zea mays for feed grew to a shoot height ranging from 20 to 30 cm, the emulsifiable concentrate mentioned above was diluted with water so as to have a specified amount of the active ingredient, and then sprayed onto the shoot parts by means of a small-sized sprayer at an application rate of 250 L of water per hectare.
(§8) Three weeks after the treatment, the weight of the shoot part of the alive plant in the untreated plot and the treated plot with respect to each plant was measured. The herbicidal index was calculated according to the calculation expression described below.
as §4
(§9) A diluted emulsifiable concentrate of the compound of A-2 was sprayed at a dosage of 250 g or 63 g of the compound per hectare.
as §6

Alopecurus myosuroides = test: as above; details: sprayed onto shoots, three weeks after the treatment
Procedure: as §1, §7, §8, §4, §9, §6

Amaranthus retroflexus = test: as above; details: sprayed onto shoots, three weeks after the treatment
Procedure: as §1, §7, §8, §4, §9, §6

Avena sativa = test: as above; details: sprayed onto shoots, three weeks after the treatment
Procedure: as §1, §7, §8, §4, §9, §6

Digitaria ciliaris [4] = test: as above; details: sprayed onto shoots, three weeks after the treatment
Procedure: as §1, §7, §8, §4, §9, §6

Lolium multiflorum [5] = test: as above; details: sprayed onto shoots, three weeks after the treatment
Procedure: as §1, §7, §8, §4, §9, §6

Setaria faberi = test: as above; details: sprayed onto shoots, three weeks after the treatment
Procedure: as §1, §7, §8, §4, §9, §6

Zea mays for feed [6] = test: Test Example 3: spraying onto shoots, herbicidal index (crop); details: sprayed onto shoots (crop, shoot height 20 to 30 cm), three weeks after the treatment
Procedure: as §1, §7, §8, §4, §9, §6

| SMILES | Herbicidal index Digitaria ciliaris (Digitaria ciliaris [1]) | Herbicidal index Lolium multiflorum (Lolium multiflorum [2]) | Herbicidal index Zea mays for feed (Zea mays for feed [3]) | Herbicidal index Abutilon theophrasti (Abutilon theophrasti; 63 g ai/ha) | Herbicidal index Abutilon theophrasti (Abutilon theophrasti; 250 g ai/ha) | Herbicidal index Alopecurus myosuroides (Alopecurus myosuroides; 63 g ai/ha) | Herbicidal index Alopecurus myosuroides (Alopecurus myosuroides; 250 g ai/ha) | Herbicidal index Amaranthus retroflexus (Amaranthus retroflexus; 63 g ai/ha) | Herbicidal index Amaranthus retroflexus (Amaranthus retroflexus; 250 g ai/ha) | Herbicidal index Avena sativa (Avena sativa; 63 g ai/ha) | Herbicidal index Avena sativa (Avena sativa; 250 g ai/ha) | Herbicidal index Digitaria ciliaris (Digitaria ciliaris [4]; 63 g ai/ha) | Herbicidal index Digitaria ciliaris (Digitaria ciliaris [4]; 250 g ai/ha) | Herbicidal index Lolium multiflorum (Lolium multiflorum [5]; 63 g ai/ha) | Herbicidal index Lolium multiflorum (Lolium multiflorum [5]; 250 g ai/ha) | Herbicidal index Setaria faberi (Setaria faberi; 63 g ai/ha) | Herbicidal index Setaria faberi (Setaria faberi; 250 g ai/ha) | Herbicidal index Zea mays for feed (Zea mays for feed [6]; 63 g ai/ha) | Herbicidal index Zea mays for feed (Zea mays for feed [6]; 250 g ai/ha) |
| --- | --- | --- | --- | --- | --- | --- | --- | --- | --- | --- | --- | --- | --- | --- | --- | --- | --- | --- | --- |
| Cn1ncc(-c2ccc(C(F)(F)F)cc2S(C)(=O)=O)c(O)c1=O [(A)] | 80% | 40% | 50% | 80% | 90% | 50% | 90% | 100% | 100% | 60% | 80% | 80% | 90% | 40% | 50% | 80% | 100% | 40% | 90% |
| Cn1ncc(-c2ccc(C(F)(F)F)c3c2CCCS3(=O)=O)c(O)c1=O [Compound A-2, 5-(1,1-dioxido-8-(trifluoromethyl)thiochroman-5-yl)-4-hydroxy-2-methylpyridazin-3(2H)-one] | 90% | 100% | 0% | 100% | 100% | 80% | 100% | 100% | 100% | 100% | 100% | 90% | 100% | 100% | 100% | 100% | 100% | 0% | 20% |

Reference: patent publication US12256736B2, “Pyridazine compound and herbicide” (Nippon Soda Co., Ltd., priority 2019, dated 2025)
